Data reported in patent US12298315B2, “Systems and methods to identify and treat subjects at risk for obstetrical complications” (Wayne State University, priority 2014, dated 2025).

Tests used:
[1] = tested on: PIGF; assay: Maternal plasma PIGF concentration by immunoassay; assay type: in vivo, human; details: pravastatin 20 mg once daily since 17+4 weeks, one pregnant subject
Protocol: (§1) Sample collection and immunoassays. Blood was obtained by venipuncture and collected into tubes containing EDTA. Samples were centrifuged and stored at −70° C. Maternal plasma concentrations of sVEGFR-1, PIGF, and sEng were determined by sensitive and specific immunoassays (R&D Systems). The inter- and intra-assay coefficients of variation (CV) were: 1.4% and 3.9% for sVEGFR-1, 2.3% and 4.6% for sEng, and 6.02% and 4.8%, respectively, for PIGF. The sensitivity of the assays was 16.97 […], 0.08 ng/ml for sEng, and 9.52 […]. The laboratory personnel performing the assays were blinded to the clinical information.
(§2) Sample Collection and Immunoassays. Blood was obtained by venipuncture and collected into tubes containing EDTA at enrollment and every four weeks until the 24th week of gestation, as well as bi-weekly thereafter until delivery. Samples were centrifuged and stored at −70° C. Maternal plasma concentrations of sVEGFR-1, PIGF, and sEng were determined by immunoassays. The inter- and intra-assay coefficients of variation (CV) of the assays were: 1.4% and 3.9% for sVEGFR-1, 2.3% and 4.6% for sEng, and 6.02% and 4.8%, respectively, for PIGF. The sensitivities of the assays were 16.97 […], 0.08 ng/ml for sEng, and 9.52 […]. Laboratory personnel performing the assays were blinded to the clinical information.
(§3) The subject received subcutaneous 5000 units of heparin twice a day, 81 mg aspirin tablet daily, and IVIG 1 mg/kg every four weeks from the beginning of the current pregnancy. At 12 weeks and 2 days gestation, maternal PAPP-A concentration was low (1st percentile). […] However, bilateral UtA notching (mean UtA PI 2.23 (95th percentile)) was noted, and the plasma angiogenic/anti-angiogenic factor ratio concentrations were low. At 13, 15, and 17 weeks of gestation, plasma concentrations of sVEGFR-1 and sEng were extremely high (96th-98th percentile; see Table 9 and FIGS. 8A and 8C)), and those of PIGF were within normal limits (59th-62nd percentile; Table 9, FIG. 8B). The PIGF/sVEGFR-1 concentration ratios were low, in the 4th, 6th, and 10th percentiles, respectively (see FIG. 8D).
(§4) The subject was informed of these findings, of the poor prognosis associated with extremely high plasma sVEGFR-1 concentrations, and of the likelihood that this pregnancy, like their previous one, could be affected by MF. After being counseled extensively about the potential adverse events and issues of safety of pravastatin administration during pregnancy, and informed that there was little evidence from animal experiments that pravastatin could reverse angiogenic/anti-angiogenic factor imbalances, the subject was offered and opted to receive pravastatin 20 milligrams once daily at 17 weeks and 4 days of gestation. At 21 weeks of gestation, the plasma concentrations of sVEGFR-1 decreased to the normal range (56th percentile) while that of PIGF increased to 93rd percentile. Plasma sEng remained high, at the 94th percentile.
(§5) Sample Collection and Immunoassays. Venipuncture was performed serially at regular prenatal visits and admissions to the hospital for all normal and MPFD affected pregnancies. Blood was collected into tubes containing EDTA. Samples were centrifuged and stored at −70° C. until used for assay. Sensitive and specific immunoassays (R&D systems, Minneapolis, MN) were used to determine maternal plasma concentrations of PIGF, sEng, sVEGFR-1 and -2. All immunoassays utilized the quantitative sandwich enzyme immunoassay technique, and their concentrations in maternal plasma were determined by interpolation from the standard curves. The inter- and intra-assay coefficients of variation (CV) obtained in the laboratory were as follows: PIGF, 6.02 and 4.8%, respectively; s-Eng, 2.3 and 4.6%, respectively; sVEGFR-1, 1.4 and 3.9%, respectively; and sVEGFR-2, 2 and 4%, respectively. […]

[2] = cited from earlier work
[3] = cited from earlier work; remark: listed apart in the source
[4] = tested on: sEng; assay: Maternal plasma sEng concentration by immunoassay; assay type: in vivo, human; details: pravastatin 20 mg once daily since 17+4 weeks, one pregnant subject
Protocol: as §1, §2, §3, §4, §5

[5] = tested on: PIGF/sVEGFR-1; assay: Maternal plasma PIGF/sVEGFR-1 concentration ratio; assay type: in vivo, human; details: pravastatin 20 mg once daily since 17+4 weeks, one pregnant subject
Protocol: as §1
Quantile regression was used to calculate median analyte ratio concentrations (PIGF/sVEGFR-1, PIGF/sEng) conditional upon GA among uncomplicated pregnancies (n=886). MoM values were calculated for both analyte ratios for each subject. MoM cutoffs were calculated based on inspection of receiver operating characteristic (ROC) curves calculated for each outcome (stillbirth, late PE, severe late PE, and SGA without PE). Prognostic logistic regression models were constructed for each outcome, including the MoM cutoff and clinical risk factors. Covariables included in adjusted models were selected based on clinical knowledge. Model reduction was performed additionally based on the plausibility of regression coefficients, association with independent variables and the magnitude of change in the main effect parameter estimates. To account for potential model over-fitting, when van Houwelingen and le Cessie's heuristic shrinkage estimator fell below 0.85 (indicator of instability), bootstrap estimated linear shrinkage factors and Firth's penalized maximum likelihood estimation were used to calculate conservative estimates less likely to be affected by over-fitting.
Statistical Analysis. Proportions and 95% CI or medians and interquartile ranges were calculated for categorical and arithmetic variables. Pearson correlation coefficients were used to characterize bivariate relation among arithmetic variables. Quantile regression models were fitted to estimate expected medians of biochemical analyte concentrations and Doppler velocimetry PI as a function of gestational week at examination for women with uncomplicated term pregnancies. MoM were calculated for each biomarker (biochemical and sonographic) for each subject. […]

[6] = tested on: sVEGFR-1; assay: Maternal plasma sVEGFR-1 concentration by immunoassay; assay type: in vivo, human; details: pravastatin 20 mg once daily since 17+4 weeks, one pregnant subject
Protocol: as §1, §2, §3, §4, §5

[7] = dually perfused term human placental lobule

In the case of `CC[C@H](C)C(=O)O[C@H]1C[C@H](O)C=C2C=C[C@H](C)[C@H](CC[C@@H](O)C[C@@H](O)CC(=O)O)[C@H]21` [pravastatin, Pravastatin], the “Plasma concentration of PIGF” value ([1]; GA 19+5 weeks) is reported as 306 pg/mL, the “Plasma concentration of PIGF” value ([1]; GA 21+6 weeks) is reported as 644 pg/mL and the “Plasma concentration of PIGF” value ([1]; GA 25+3 weeks) is reported as 768 pg/mL. For the same molecule, the “Plasma PIGF, percentile for GA” value ([1]; GA 27+4 weeks) was “(74) percentile”, the “Plasma concentration of PIGF” value ([1]; GA 27+4 weeks) was 869 pg/mL and the “Plasma PIGF, percentile for GA” value ([1]; GA 29+4 weeks) was “(65) percentile”. The “Plasma concentration of PIGF” value ([1]; GA 29+4 weeks) was 821 pg/mL, the “Plasma PIGF, percentile for GA” value ([1]; GA 31+4 weeks) was “(44) percentile” and the “Plasma concentration of PIGF” value ([1]; GA 31+4 weeks) was 536 pg/mL. For the same molecule, the “Plasma concentration of PIGF” value ([1]; GA 33+5 weeks) was 528 pg/mL, the “Pravastatin remained in the maternal circuit” value [2, 7] was 68% and the “Pravastatin retained by the placental tissue” value [2, 7] was 14%. The “Pravastatin transferred to the fetal circuit” value [2, 7] was 18%, the “Direction of placental transfer” value ([2]; fetal to maternal versus maternal to fetal compartment) was “higher transfer of pravastatin from the fetal to the maternal compartment than the reverse” and the “Abnormal pregnancy outcomes following exposure” value ([3]; humans, exposure during pregnancy) was “abnormal pregnancy outcomes were not reported”. For the same molecule, the “Plasma concentration of sEng” value ([4]; GA 19+5 weeks) was 13.1 ng/mL, the “Plasma sEng, percentile for GA” value ([4]; GA 19+5 weeks) was “(98) percentile” and the “Plasma concentration of sEng” value ([4]; GA 21+6 weeks) was 8.7 ng/mL. For the same molecule, the “Plasma concentration of sEng” value ([4]; GA 25+3 weeks) was 8.8 ng/mL, the “Plasma sEng, percentile for GA” value ([4]; GA 25+3 weeks) was “(94) percentile” and the “Plasma concentration of sEng” value ([4]; GA 27+4 weeks) was 9.9 ng/mL. The “Plasma sEng, percentile for GA” value ([4]; GA 27+4 weeks) was “(95) percentile”, the “Plasma concentration of sEng” value ([4]; GA 29+4 weeks) was 12.7 ng/mL and the “Plasma sEng, percentile for GA” value ([4]; GA 29+4 weeks) was “(97) percentile”. The “Plasma concentration of sEng” value ([4]; GA 31+4 weeks) was 9.6 ng/mL, the “Plasma sEng, percentile for GA” value ([4]; GA 31+4 weeks) was “(85) percentile” and the “Plasma concentration of sEng” value ([4]; GA 33+5 weeks) was 12.7 ng/mL. For the same molecule, the “Plasma sEng, percentile for GA” value ([4]; GA 33+5 weeks) was “(85) percentile”, the PIGF/sVEGFR-1 concentration ratio ([5]; GA 19+5 weeks) was 0.07 and the “PIGF/sVEGFR-1 ratio, percentile for GA” value ([5]; GA 19+5 weeks) was “(23) percentile”. The PIGF/sVEGFR-1 concentration ratio ([5]; GA 21+6 weeks) was 0.34, the “PIGF/sVEGFR-1 ratio, percentile for GA” value ([5]; GA 21+6 weeks) was “(90) percentile” and the PIGF/sVEGFR-1 concentration ratio ([5]; GA 25+3 weeks) was 0.27. For the same molecule, the “PIGF/sVEGFR-1 ratio, percentile for GA” value ([5]; GA 25+3 weeks) was “(51) percentile”, the PIGF/sVEGFR-1 concentration ratio ([5]; GA 27+4 weeks) was 0.22 and the “PIGF/sVEGFR-1 ratio, percentile for GA” value ([5]; GA 27+4 weeks) was “(34) percentile”. For the same molecule, the PIGF/sVEGFR-1 concentration ratio ([5]; GA 29+4 weeks) was 0.18, the “PIGF/sVEGFR-1 ratio, percentile for GA” value ([5]; GA 29+4 weeks) was “(25) percentile” and the PIGF/sVEGFR-1 concentration ratio ([5]; GA 31+4 weeks) was 0.08. The “PIGF/sVEGFR-1 ratio, percentile for GA” value ([5]; GA 31+4 weeks) was “(10) percentile”, the PIGF/sVEGFR-1 concentration ratio ([5]; GA 33+5 weeks) was 0.04 and the “PIGF/sVEGFR-1 ratio, percentile for GA” value ([5]; GA 33+5 weeks) was “(6) percentile”. The “Plasma concentration of sVEGFR-1” value ([6]; GA 19+5 weeks) was 4148 pg/mL, the “Plasma concentration of sVEGFR-1” value ([6]; GA 21+6 weeks) was 1889 pg/mL and the “Plasma concentration of sVEGFR-1” value ([6]; GA 25+3 weeks) was 2854 pg/mL. For the same molecule, the “Plasma concentration of sVEGFR-1” value ([6]; GA 27+4 weeks) was 3881 pg/mL, the “Plasma sVEGFR-1, percentile for GA” value ([6]; GA 27+4 weeks) was “(90) percentile” and the “Plasma concentration of sVEGFR-1” value ([6]; GA 29+4 weeks) was 4684 pg/mL. The “Plasma sVEGFR-1, percentile for GA” value ([6]; GA 29+4 weeks) was “(93) percentile”, the “Plasma concentration of sVEGFR-1” value ([6]; GA 31+4 weeks) was 6370 pg/mL and the “Plasma sVEGFR-1, percentile for GA” value ([6]; GA 31+4 weeks) was “(97) percentile”. For the same molecule, the “Plasma concentration of sVEGFR-1” value ([6]; GA 33+5 weeks) was 11202 pg/mL.
In the case of `CC[C@H](C)C(=O)O[C@H]1C[C@@H](C)C=C2C=C[C@H](C)[C@H](CC[C@@H]3C[C@@H](O)CC(=O)O3)[C@H]21` [lovastatin, Lovastatin], the “Adverse pregnancy outcomes, post marketing surveillance” value ([3]; subjects with an early exposure to these drugs) is given as “has not found any adverse pregnancy outcomes”.
